Measured values reported in publication PMC11314561, “Design and Synthesis of Novel Aminoindazole-pyrrolo[2,3-b]pyridine Inhibitors of IKKα That Selectively Perturb Cellular Non-Canonical NF-κB Signalling” (Molecules, 2024).
pKi: −log10 of the molar value. ≈ marks a conversion by molar mass, not a printed value.

Tests used:
IKKβ = target: T1, IKKβ (Homo sapiens, UniProt O14920); assay: DELFIA kinase assay, IKKβ; type: biochemical; conditions: read-out: Ki Values IKKβ
T1 sequence (O14920 1-756): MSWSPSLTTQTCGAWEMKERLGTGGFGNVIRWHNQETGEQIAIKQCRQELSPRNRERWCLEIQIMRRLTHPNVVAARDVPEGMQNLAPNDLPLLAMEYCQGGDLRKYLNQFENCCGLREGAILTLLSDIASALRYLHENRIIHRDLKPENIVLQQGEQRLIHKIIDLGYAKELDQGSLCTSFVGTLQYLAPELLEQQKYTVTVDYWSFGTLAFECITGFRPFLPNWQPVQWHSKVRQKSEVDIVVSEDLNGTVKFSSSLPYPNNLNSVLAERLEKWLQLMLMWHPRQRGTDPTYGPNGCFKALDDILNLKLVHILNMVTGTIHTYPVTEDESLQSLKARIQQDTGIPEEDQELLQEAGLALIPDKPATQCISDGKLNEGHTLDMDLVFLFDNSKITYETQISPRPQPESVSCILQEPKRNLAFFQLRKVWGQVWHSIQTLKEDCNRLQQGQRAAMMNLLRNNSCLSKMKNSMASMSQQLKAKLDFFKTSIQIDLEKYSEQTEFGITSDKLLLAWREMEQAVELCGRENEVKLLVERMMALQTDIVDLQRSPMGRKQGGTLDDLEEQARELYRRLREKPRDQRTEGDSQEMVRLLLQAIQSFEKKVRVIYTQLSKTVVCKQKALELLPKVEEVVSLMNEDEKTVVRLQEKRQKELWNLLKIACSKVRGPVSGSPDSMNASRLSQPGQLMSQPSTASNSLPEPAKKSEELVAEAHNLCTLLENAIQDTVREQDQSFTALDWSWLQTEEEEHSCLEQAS
Method: IKKα and IKKβ inhibitory activity were determined using a dissociation-enhanced ligand fluorescent immunoassay (DELFIA) based on the protocol of HTScan™ IKKβ Kinase Assay (Cell Signaling Technology, Danvers, MA, USA) as described in [24].

panel of 231 kinases = assay: Kinome profiling, summary; type: biochemical, human; conditions: 1 μM
From the text: (§1) We profiled three compounds from the series across the kinome (Table S1).
(§2) Ta b l e S1. The % inhibition of compounds 4, 5r [SU1261], and 6g [SU1349] against a
(§3) panel of kinase enzymes. We proϐiled three compounds from the series across 231
(§4) kinases. For SU1349, given its structural similarity with SU1261, we selected 98 from the
(§5) Tested kinase % inhibiƟon

MELK(h) = MELK(h) (Homo sapiens, UniProt Q14680); assay: kinase panel; type: biochemical
In short: (§6)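 Percentage inhibition was recorded for each compound against a broad kinase panel of 231 enzymes. Because of its close structural resemblance to another analogue, one compound was screened against 98 chosen kinases.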

PAK6(h) = PAK6(h) (Homo sapiens, UniProt Q9NQU5); assay: kinase panel; type: biochemical
In short: as §6

MLCK(h) = assay: kinase panel; type: biochemical, human; conditions: 1 μM
From the text: as §1, §2, §3, §4, §5

[1] = system: IκBα degradation in PC-3M cells; assay: TNFα-stimulated IκBα degradation, Western blotting; type: cell-based; conditions: for effect on TNFα-stimulated IκBα degradation: PC-3M cells, 0.1–10 µM
Method: (§7) U2OS cells were cultured in McCoy’s 5A Modified Medium, and PC-3M-Luc-C6 prostate cancer cells were cultured in Minimum Essential Medium (MEM), each containing 10% (v/v) Foetal Calf Serum (FCS), L-glutamine ([…]), and penicillin/streptomycin (250 units/mL; 100 μg/mL) and incubated in a humidified atmosphere at 37 °C with 5% (v/v) CO2. Cells were grown to near confluence and prior to experimentation rendered quiescent by serum deprivation for 24 h.
(§8) To examine the potential impact of compounds on canonical NF-κB signalling, cells were then exposed to vehicle (DMSO; 0.05% (v/v)) or increasing concentrations of compounds (0.01–30 µM) for 1 h prior to treatment with TNF⍺ (20 ng/mL) for 30 min. Whole-cell extracts were prepared, and the status of IκB⍺, phospho-p65 (Ser536), p65, and phospho-p105 ([…]) was also assessed by Western blotting.
Each figure/panel of Western blotting data represents one of at least three separate experiments. Western blots were scanned and imaged using Adobe Photoshop 5.0.2 software and polypeptide bands were semi-quantified by scanning densitometry using the Scion Image program. Data were normalised to fold expression/inhibition relative to ‘agonist plus vehicle’ treatment and expressed as mean ± s.e.m. […]
Figure 14 Compound 5r [SU1261] inhibits LTα1β2-stimulated p100 phosphorylation (Ser866/870) but not TNFα-stimulated IkBα degradation, phosphorylation of p65 (Ser536), nor phosphorylation of p105 (Ser932) in PC-3M prostate cancer cells. […] (0.1–10 µM) for 1 h prior to treatment with LTα1β2 (15 ng/mL) for 4 h, and phospho-p100 (Ser866/870) in whole-cell extracts was assessed by Western blotting. […] (0.1–10 µM) for 1 h prior to treatment with TNFα (10 ng/mL) for 30 min, and IkBα degradation, phospho-p65 (Ser536), phospho-p105 (Ser932), and p65 expression in whole-cell extracts were assessed by Western blotting. […] Normalised data (n = 3) from semi-quantitative scanning densitometry were plotted relative to ‘agonist plus vehicle’ (LTα1β2 plus DMSO), and IC50 values were established by curve fitting using the Hill equation (see Figure S1D).

[2] = system: p65 (Ser536) phosphorylation in PC-3M cells; assay: TNFα-stimulated p65 (Ser536) phosphorylation, Western blotting; type: cell-based; conditions: 0.1–10 µM
Method: as §7, §8
(§9) Each figure/panel of Western blotting data represents one of at least three separate experiments. Western blots were scanned and imaged using Adobe Photoshop 5.0.2 software and polypeptide bands were semi-quantified by scanning densitometry using the Scion Image program. Data were normalised to fold expression/inhibition relative to ‘agonist plus vehicle’ treatment and expressed as mean ± s.e.m. IC50 values were established by curve fitting using the Hill equation. […]

[3] = system: p105 (Ser932) phosphorylation in PC-3M cells; assay: TNFα-stimulated p105 (Ser932) phosphorylation, Western blotting; type: cell-based; conditions: 0.1–10 µM
Method: as §7, §8, §9

Turbidimetric solubility = type: physicochemical; conditions: pH 7.4, aqueous buffer, kinetic from dmso stock, 0.01 M phosphate-buffered saline pH7.4
Method: Pharmacokinetic studies were contracted to Sygnature Discovery Limited. Turbidimetric Solubility was determined by diluting compound solutions (1 μM, 3 μM, 10 μM, 30 μM, 100 μM) prepared in DMSO into 0.01 M phosphate-buffered saline pH7.4. Turbidimetry was used as the endpoint by measuring absorbance at 620 nm.

[4] = Mouse hepatocyte intrinsic clearance and half-life; type: in vitro ADME; conditions: mouse CD1 hepatocytes; for half-life at 1 µM: cryopreserved pooled hepatocytes; for Mouse Hepatocyte Clearance: 1 µM
Method: Intrinsic clearance and half-life were determined using cryopreserved pooled mouse CD1 hepatocytes. Test compounds were analysed at 1 µM in Williams Media E buffer (0.01% DMSO) at a cell density of 0.5 × 10^6 cells mL^–1. Cells were incubated at 37 °C for one hour with shaking, and compound depletion was measured by LC-MS/MS at six time points (0.25, 5, 10, 20, 40, and 60 min).

MELK(h), sequence (Q14680 whole entry): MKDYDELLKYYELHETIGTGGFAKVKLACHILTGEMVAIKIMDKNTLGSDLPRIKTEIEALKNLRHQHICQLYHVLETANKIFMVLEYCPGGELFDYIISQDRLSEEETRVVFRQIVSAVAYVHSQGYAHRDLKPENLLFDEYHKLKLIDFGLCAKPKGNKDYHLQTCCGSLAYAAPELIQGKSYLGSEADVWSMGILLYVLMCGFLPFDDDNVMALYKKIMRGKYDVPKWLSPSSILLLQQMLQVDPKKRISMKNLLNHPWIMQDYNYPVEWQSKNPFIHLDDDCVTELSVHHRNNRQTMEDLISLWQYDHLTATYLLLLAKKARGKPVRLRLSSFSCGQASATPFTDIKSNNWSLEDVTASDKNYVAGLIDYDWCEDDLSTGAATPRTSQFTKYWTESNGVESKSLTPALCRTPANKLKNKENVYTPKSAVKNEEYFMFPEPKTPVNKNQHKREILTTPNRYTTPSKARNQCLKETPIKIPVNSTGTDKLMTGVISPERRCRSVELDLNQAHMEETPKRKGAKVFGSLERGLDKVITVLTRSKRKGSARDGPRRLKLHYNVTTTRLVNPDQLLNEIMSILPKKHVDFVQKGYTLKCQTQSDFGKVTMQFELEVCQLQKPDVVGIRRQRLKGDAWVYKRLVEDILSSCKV
PAK6(h), sequence (Q9NQU5 whole entry): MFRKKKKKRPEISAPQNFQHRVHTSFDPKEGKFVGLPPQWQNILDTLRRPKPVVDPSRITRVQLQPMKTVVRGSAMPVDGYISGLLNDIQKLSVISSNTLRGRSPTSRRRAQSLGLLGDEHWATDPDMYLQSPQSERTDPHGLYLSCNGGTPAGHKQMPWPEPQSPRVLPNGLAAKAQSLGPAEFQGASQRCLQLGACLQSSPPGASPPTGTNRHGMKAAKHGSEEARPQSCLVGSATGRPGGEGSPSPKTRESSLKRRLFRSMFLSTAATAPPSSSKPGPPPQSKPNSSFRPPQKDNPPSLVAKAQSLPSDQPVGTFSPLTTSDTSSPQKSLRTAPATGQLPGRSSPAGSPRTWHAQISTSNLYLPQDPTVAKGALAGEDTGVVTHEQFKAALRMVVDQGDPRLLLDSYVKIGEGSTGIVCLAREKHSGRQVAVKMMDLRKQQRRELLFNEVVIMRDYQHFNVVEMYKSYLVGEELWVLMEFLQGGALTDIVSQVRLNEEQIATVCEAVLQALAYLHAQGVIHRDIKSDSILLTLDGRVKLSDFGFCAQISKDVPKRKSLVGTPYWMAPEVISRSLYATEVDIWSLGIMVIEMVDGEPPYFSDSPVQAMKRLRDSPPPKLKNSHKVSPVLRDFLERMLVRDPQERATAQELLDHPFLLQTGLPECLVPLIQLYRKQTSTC

Row | Structure (SMILES) | pKi (IKKβ) | number of kinases inhibited by >80% (panel of 231 kinases) | inhibition at 1 µM (MELK(h)) | inhibition at 1 µM (PAK6(h)) | % inhibition MLCK(h) (MLCK(h)) | effect on TNFα-stimulated IκBα degradation [1] | effect on TNFα-stimulated p65 (Ser536) phosphorylation [2] | effect on TNFα-stimulated p105 (Ser932) phosphorylation [3] | solubility (Turbidimetric solubility) | half-life at 1 µM [4] | Mouse Hepatocyte Clearance [4] | impact on IKKβ-mediated canonical NF-κB signalling ([1]; prostate cancer cell line (PC-3M), at 10 μM)
1 | Nc1n[nH]c2ccc(-c3ccnc4[nH]c(-c5ccccc5)cc34)cc12 [Compound 4] | 7.82 | 44 kinases | 41% | 32% | 0% |  |  |  |  |  |  | 
2 | Nc1n[nH]c2ccc(-c3ccnc4[nH]c(-c5cccc(OCc6ccccc6)c5)cc34)cc12 [Compound 5r [SU1261]] | 6.17 | 10 kinases | 13% | 22% | -10% | did not impact | did not impact | no significant concentration-dependent inhibition | < 1 µM | 36 min | 38 μL/min/10^6 Cells | 
3 | Nc1n[nH]c2ccc(-c3ccnc4[nH]c(-c5ccnc(OCc6ccccc6)c5)cc34)cc12 [Compound 6g [SU1349]] | 5.47 |  |  |  |  | no impact | no impact | no impact | 20 µM (≈ 8.65 µg/mL) | 51 min | 27 μL/min/10^6 Cells | no detectable impact
